In PubChem BioAssay (NCI):
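Method: 48-hour compound exposure of cells in 96-well plates, five concentrations, linear interpolation of endpoints. At the GI50, growth is halved. TGI denotes the concentration required for complete inhibition of growth.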

Columns and labels:
Assay in all cases: DTP human tumour cell line panel, 48 h
[1] = test system: A549 NSCLC
[2] = test system: HOP-62 NSCLC
[3] = test system: NCI-H23 lung
[4] = test system: SF-268 CNS
[5] = test system: SK-MEL-2 melanoma
[6] = test system: DU-145 prostate
[7] = test system: MALME-3M melanoma
[8] = test system: SNB-75 CNS
[9] = test system: COLO 205 colon
[10] = test system: RPMI-8226 leukemia
[11] = test system: BT-549 breast
[12] = test system: HCT-15 colon
[13] = test system: OVCAR-8 ovarian
[14] = test system: HOP-92 NSCLC
[15] = test system: PC-3 prostate
[16] = test system: MCF7 breast
[17] = test system: UACC-62 melanoma
[18] = test system: UACC-257 melanoma
[19] = test system: HL-60(TB) leukemia
[20] = test system: NCI-H226 lung
[21] = test system: SK-MEL-28 melanoma
[22] = test system: A498 renal
[23] = test system: 786-0 renal
[24] = test system: NCI-H522 lung
[25] = test system: SK-OV-3 ovarian
[26] = test system: NCI/ADR-RES ovarian
[27] = test system: UO-31 renal
[28] = test system: HCT-116 colon
[29] = test system: NCI-H460 lung
[30] = test system: MDA-MB-231 breast
[31] = test system: K-562 leukemia
[32] = test system: SW-620 colon
[33] = test system: CAKI-1 renal
[34] = test system: KM12 colon
[35] = test system: T-47D breast
[36] = test system: CCRF-CEM leukemia
[37] = test system: HT29 colon
[38] = test system: SK-MEL-5 melanoma
[39] = test system: MOLT-4 leukemia
[40] = test system: ACHN renal
[41] = test system: OVCAR-4 ovarian
[42] = test system: M14 melanoma
[43] = test system: TK-10 renal
[44] = test system: SF-539 CNS
[45] = test system: HCC-2998 colon
[46] = test system: SR leukemia
[47] = test system: HS 578T breast
[48] = test system: SF-295 CNS
[49] = test system: OVCAR-5 ovarian
[50] = test system: U251 CNS
[51] = test system: SNB-19 CNS
[52] = test system: RXF 393 renal
[53] = test system: SN12C renal
[54] = test system: IGROV1 ovarian
[55] = test system: EKVX NSCLC

With `O=C(Nc1ccc(F)cc1)c1cc(-c2ccc(F)cc2F)ccc1O` the GI50 [1] was 3.25 µM, the TGI [1] was greater than 100 µM and the GI50 [2] was 3.13 µM. The TGI [2] was 17.1 µM, the GI50 [3] was 2.47 µM and the TGI [3] was 7.78 µM. It also gave a GI50 [4] of 2.67 µM, a TGI [4] greater than 100 µM and a GI50 [5] of 1.86 µM. The TGI [5] was 5.57 µM, the GI50 [6] was 3.33 µM and the TGI [6] was greater than 100 µM. For the same molecule, the GI50 [7] was 1.92 µM, the TGI [7] was 5.64 µM and the GI50 [8] was 1.84 µM. For the same molecule, the TGI [8] was 5.55 µM, the GI50 [9] was 17.1 µM and the TGI [9] was 50.1 µM. For the same molecule, the GI50 [10] was 1.74 µM, the TGI [10] was 6.38 µM and the GI50 [11] was 2.78 µM. It also gave a TGI [11] of 18.6 µM, a GI50 [12] of 2.89 µM and a TGI [12] of 13 µM. The GI50 [13] was 3.2 µM, the TGI [13] was greater than 100 µM and the GI50 [14] was 1.47 µM. It also gave a TGI [14] of 5.24 µM, a GI50 [15] of 2.78 µM and a TGI [15] of 19.8 µM. The GI50 [16] was 2.31 µM, the TGI [16] was 10.1 µM and the GI50 [17] was 1.39 µM. It also gave a TGI [17] of 4.61 µM, a GI50 [18] of 1.61 µM and a TGI [18] of 6.97 µM. For the same molecule, the GI50 [19] was 1.93 µM, the TGI [19] was 5.04 µM and the GI50 [20] was 2.88 µM. The TGI [20] was 9.82 µM, the GI50 [21] was 2.9 µM and the TGI [21] was greater than 100 µM. For the same molecule, the GI50 [22] was 1.47 µM, the TGI [22] was 4.13 µM and the GI50 [23] was 3.31 µM. It also gave a TGI [23] of 16.7 µM, a GI50 [24] of 1.83 µM and a TGI [24] of 8.3 µM. The GI50 [25] was 2.65 µM, the TGI [25] was 8.99 µM and the GI50 [26] was 2.49 µM. The TGI [26] was 8.51 µM, the GI50 [27] was 2.11 µM and the TGI [27] was 8.67 µM. For the same molecule, the GI50 [28] was 2.81 µM, the TGI [28] was 12.6 µM and the GI50 [29] was 2.98 µM. The TGI [29] was 12.8 µM, the GI50 [30] was 2.38 µM and the TGI [30] was 6.47 µM. The GI50 [31] was 2.81 µM, the TGI [31] was greater than 100 µM and the GI50 [32] was 3.4 µM. For the same molecule, the TGI [32] was greater than 100 µM, the GI50 [33] was 1.95 µM and the TGI [33] was 6 µM. It also gave a GI50 [34] of 3.03 µM, a TGI [34] of 9.93 µM and a GI50 [35] of 1.75 µM. It also gave a TGI [35] of 8.14 µM, a GI50 [36] of 3.29 µM and a TGI [36] greater than 100 µM. The GI50 [37] was 12.7 µM, the TGI [37] was greater than 100 µM and the GI50 [38] was 1.56 µM. The TGI [38] was 3.63 µM, the GI50 [39] was 2.57 µM and the TGI [39] was 7.9 µM. For the same molecule, the GI50 [40] was 2.77 µM, the TGI [40] was 8.51 µM and the GI50 [41] was 2.74 µM. The TGI [41] was 45.5 µM, the GI50 [42] was 3.32 µM and the TGI [42] was greater than 100 µM. For the same molecule, the GI50 [43] was 2.91 µM, the TGI [43] was 23.2 µM and the GI50 [44] was 3.65 µM. The TGI [44] was 18.5 µM, the GI50 [45] was 3.12 µM and the TGI [45] was 42.8 µM. It also gave a GI50 [46] of 2.93 µM, a TGI [46] of 80.3 µM and a GI50 [47] of 2.79 µM. For the same molecule, the TGI [47] was 9.62 µM, the GI50 [48] was 2.44 µM and the TGI [48] was 7.55 µM. It also gave a GI50 [49] of 3.37 µM, a TGI [49] of 37.8 µM and a GI50 [50] of 3.23 µM. The TGI [50] was 24.6 µM, the GI50 [51] was 3.36 µM and the TGI [51] was 31.9 µM. The GI50 [52] was 2.75 µM, the TGI [52] was 8.04 µM and the GI50 [53] was 2.36 µM. For the same molecule, the TGI [53] was 8.3 µM, the GI50 [54] was 3.45 µM and the TGI [54] was greater than 100 µM. It also gave a GI50 [55] of 2.61 µM and a TGI [55] of 9.17 µM.
